Like-named read-outs stand apart in the source and are kept apart here.
How the values were obtained:
Assay type in all cases: in vivo
Spodoptera litura = assay: Pesticidal activity against Spodoptera litura, leaf-dipping method; settings: read-out: mortality rate against Spodoptera litura
Description: Cabbage (Daiya) leaves were cut into pieces with a diameter of 5.8 cm, dipped in each of the pesticide compositions prepared in Examples (a 5% acetone solution in which each of the compounds of Synthesis Examples (concentration: 100 ppm) was diluted) for 30 seconds, and sufficiently shade-dried. Then, the shade-dried cabbage leaves were placed in a petri dish (8.8 cm in diameter) covered with a filter paper and repeatedly inoculated 3 times with the second instar larvae of Spodoptera litura, 10 larvae per inoculation. In this case, Spodoptera litura larvae used were those which were purchased from the Bio Utilization Institute (Andong, Korea). Then, the Spodoptera litura larvae were stored under the conditions of 16 hours of light and 8 hours of dark, 25±1° C., and relative humidity of 50-60%, and the number of live Spodoptera litura larvae was counted 48 hours after the inoculation. Thereafter, the larvae mortality rate was calculated in the same manner as in Test Example 1 above.

[1] = tested on: Frankliniella occidentalis; assay: Pesticidal activity against Frankliniella occidentalis, spray method; settings: read-out: mortality rate against Frankliniella occidentalis
Description: A water-soaked filter paper (9.0 cm in diameter) was placed in an insect breeding dish (Lab Guide®) with a diameter of 9.0 cm and a height of 4.0 cm, and then parafilm (width 4.0 cm×height 4.0 cm) was placed thereon. Before treating with a pesticide composition, 10 adult Frankliniella occidentalis were inoculated per petri dish using a No. 4 brush. In this case, Frankliniella occidentalis adults used were those purchased from the Bio Utilization Institute (Andong, Korea). Then, each of the pesticide compositions prepared in Examples (a diluted solution in which each of the compounds of Synthesis Examples (concentration: 100 ppm) was diluted; the solvent=distilled water+acetone 50,000 mg/L+Triton X-100 100 mg/L) was loaded into a 100 mL small sprayer, and sprayed 10-12 times at a distance of 30 cm and a height of 50 cm, and one cotyledons of soybean, which is a host plant, were added one at a time. Then, the Frankliniella occidentalis adults were stored under the conditions of 16 hours of light and 8 hours of darkness, 25±1° C., and relative humidity of 50-60%, and the number of live Frankliniella occidentalis adults was counted 48 hours after the inoculation. Thereafter, the larvae mortality rate was calculated in the same manner as in Test Example 1 above.

Plutella xylostella = assay: Pesticidal activity against Plutella xylostella, leaf-dipping method; settings: read-out: larvae mortality rate against Plutella xylostella
Description: Cabbage (Daiya) leaves were cut into pieces with a diameter of 5.8 cm, dipped in each of the pesticide compositions prepared in Examples (a 5% acetone solution in which each of the compounds of Synthesis Examples (concentration: 100 ppm) was diluted) for 30 seconds, and sufficiently shade-dried. Then, the shade-dried cabbage leaves were placed in a petri dish (8.8 cm in diameter) covered with a filter paper and repeatedly inoculated 3 times with third instar larvae of Plutella xylostella, 10 larvae per inoculation. In particular, Plutella xylostella larvae used were those which were collected in a place near Gyeongju (Korea) in 2000 and bred in a breeding room for multiple generations. Then, the Plutella xylostella larvae were stored under the conditions of 16 hours of light and 8 hours of dark, 25±1° C., and relative humidity of 50-60%, and the number of live Plutella xylostella larvae was counted 48 hours after the inoculation. Thereafter, the larvae mortality rate was calculated by correcting the density after treatment based on the density before treatment, as shown in Equation 1 and Equation 2 below, and converting the same into the corrected mortality rate for untreated (Reference: A method of computing the effectiveness of an insecticide. J. Econ. Entomol. 18:265˜267. Abbott, 1925).

Measured: mortality at 100 ppm

Cc1cc(C2=NOC(c3cccc(C#N)c3)(C(F)(F)F)C2)ccc1C(=O)NC(=O)C1CC1 (stereo not drawn) [Synthesis Example 4]
≥ 80%: Spodoptera litura; 100 ppm, leaf-dipping, second instar larvae, 48 hours after inoculation | [1]; 100 ppm, spray, adults, 48 hours after inoculation | Plutella xylostella; 100 ppm, leaf-dipping, third instar larvae, 48 hours after inoculation

Cc1cc(C2=NOC(c3cc(C(F)(F)F)cc(C(F)(F)F)c3)(C(F)(F)F)C2)ccc1C(=O)NC(=O)C1CC1 (stereo not drawn) [Synthesis Example 5]
≥ 80%: Spodoptera litura; 48 h | [1]; 48 h | Plutella xylostella; 48 h

O=C(NC(=O)C1CC1)c1ccc(C2=NOC(c3cc(Cl)cc(C(F)(F)F)c3)(C(F)(F)F)C2)c2ccccc12 (stereo not drawn) [Synthesis Example 6]
≥ 80%: Spodoptera litura; 48 h | [1]; 48 h | Plutella xylostella; 48 h

O=C(NC(=O)C1CC1)c1ccc(C2=NOC(c3cc(Cl)cc(C(F)(F)F)c3)(C(F)(F)F)C2)cc1Br (stereo not drawn) [Synthesis Example 8]
≥ 80%: Spodoptera litura; 48 h | [1]; 48 h | Plutella xylostella; 48 h

O=C(NC(=O)C1CC1)c1ccc(C2=NOC(c3cc(Cl)cc(C(F)(F)F)c3)(C(F)(F)F)C2)cc1Cl (stereo not drawn) [Synthesis Example 9]
≥ 80%: Spodoptera litura; 48 h | [1]; 48 h | Plutella xylostella; 48 h

O=C(NC(=O)C1CC1)c1ccc(C2=NOC(c3cc(Cl)cc(C(F)(F)F)c3)(C(F)(F)F)C2)cn1 (stereo not drawn) [Synthesis Example 10]
≥ 80%: Spodoptera litura; 48 h | [1]; 48 h | Plutella xylostella; 48 h

Cc1cc(C2=NOC(c3cc(Cl)cc(C(F)(F)F)c3)(C(F)(F)F)C2)ccc1C(=O)N(C)C(=O)C1CC1 (stereo not drawn) [Synthesis Example 11]
≥ 80%: Spodoptera litura; 48 h | [1]; 48 h | Plutella xylostella; 48 h

CN(C(=O)c1ccc(C2=NOC(c3cc(Cl)cc(C(F)(F)F)c3)(C(F)(F)F)C2)c2ccccc12)C(=O)C1CC1 (stereo not drawn) [Synthesis Example 12]
≥ 80%: Spodoptera litura; 48 h | [1]; 48 h | Plutella xylostella; 48 h

Cc1cc(C2=NOC(c3cc(Cl)cc(Cl)c3)(C(F)(F)F)C2)ccc1C(=O)N(C)C(=O)C1CC1 (stereo not drawn) [Synthesis Example 13]
≥ 80%: Spodoptera litura; 48 h | [1]; 48 h | Plutella xylostella; 48 h

CN(C(=O)c1ccc(C2=NOC(c3cc(Cl)cc(Cl)c3)(C(F)(F)F)C2)c2ccccc12)C(=O)C1CC1 (stereo not drawn) [Synthesis Example 14]
≥ 80%: Spodoptera litura; 48 h | [1]; 48 h | Plutella xylostella; 48 h

O=C(c1ccc(C2=NOC(c3cc(Cl)cc(C(F)(F)F)c3)(C(F)(F)F)C2)c2ccccc12)N(CCF)C(=O)C1CC1 (stereo not drawn) [Synthesis Example 17]
≥ 80%: Spodoptera litura; 48 h | [1]; 48 h | Plutella xylostella; 48 h

Cc1ccc(C(=O)N(C)C(=O)c2ccc(C3=NOC(c4cc(Cl)cc(C(F)(F)F)c4)(C(F)(F)F)C3)cc2C)o1 (stereo not drawn) [Synthesis Example 18]
≥ 80%: Spodoptera litura; 48 h | [1]; 48 h | Plutella xylostella; 48 h

CCN(C(=O)c1ccc(C2=NOC(c3cc(Cl)cc(C(F)(F)F)c3)(C(F)(F)F)C2)cc1C)C(=O)C1CC1 (stereo not drawn) [Synthesis Example 19]
≥ 80%: Spodoptera litura; 48 h | [1]; 48 h | Plutella xylostella; 48 h

Cc1cc(C2=NOC(c3cc(Cl)cc(C(F)(F)F)c3)(C(F)(F)F)C2)ccc1C(=O)N(CC(F)(F)F)C(=O)C1CC1 (stereo not drawn) [Synthesis Example 20]
≥ 80%: Spodoptera litura; 48 h | [1]; 48 h | Plutella xylostella; 48 h

Cc1cc(C2=NOC(c3cc(Cl)cc(C(F)(F)F)c3)(C(F)(F)F)C2)ccc1C(=O)N(CC1CC1)C(=O)C1CC1 (stereo not drawn) [Synthesis Example 21]
≥ 80%: Spodoptera litura; 48 h | [1]; 48 h | Plutella xylostella; 48 h

Cc1cc(C2=NOC(c3cc(Cl)cc(C(F)(F)F)c3)(C(F)(F)F)C2)ccc1C(=O)N(C(=O)C1CC1)C(=O)C1CC1 (stereo not drawn) [Synthesis Example 22]
≥ 80%: Spodoptera litura; 48 h | [1]; 48 h | Plutella xylostella; 48 h

Cc1cc(C2=NOC(c3cc(Cl)cc(C(F)(F)F)c3)(C(F)(F)F)C2)ccc1C(=O)N(C(=O)C1CC1)C1CC1 (stereo not drawn) [Synthesis Example 23]
≥ 80%: Spodoptera litura; 48 h | [1]; 48 h | Plutella xylostella; 48 h

Cc1cc(C2=NOC(c3cc(Cl)cc(Cl)c3)(C(F)(F)F)C2)ccc1C(=O)NC(=O)C1(C)CC1 (stereo not drawn) [Synthesis Example 24]
≥ 80%: Spodoptera litura; 48 h | [1]; 48 h | Plutella xylostella; 48 h

Cc1cc(C2=NOC(c3cc(Cl)cc(C(F)(F)F)c3)(C(F)(F)F)C2)ccc1C(=O)NC(=O)C1(C)CC1 (stereo not drawn) [Synthesis Example 25]
≥ 80%: Spodoptera litura; 48 h | [1]; 48 h | Plutella xylostella; 48 h

Cc1cc(C2=NOC(c3cc(Cl)cc(Cl)c3)(C(F)(F)F)C2)ccc1C(=O)NC(=O)C1(C#N)CC1 (stereo not drawn) [Synthesis Example 26]
≥ 80%: Spodoptera litura; 48 h | [1]; 48 h | Plutella xylostella; 48 h

Cc1cc(C2=NOC(c3cc(Cl)cc(C(F)(F)F)c3)(C(F)(F)F)C2)ccc1C(=O)NC(=O)C1(C#N)CC1 (stereo not drawn) [Synthesis Example 27]
≥ 80%: Spodoptera litura; 48 h | [1]; 48 h | Plutella xylostella; 48 h

Cc1cc(C2=NOC(c3cc(Cl)cc(Cl)c3)(C(F)(F)F)C2)ccc1C(=O)NC(=O)C1(C(F)(F)F)CC1 (stereo not drawn) [Synthesis Example 28]
≥ 80%: Spodoptera litura; 48 h | [1]; 48 h | Plutella xylostella; 48 h

Cc1cc(C2=NOC(c3cc(Cl)cc(C(F)(F)F)c3)(C(F)(F)F)C2)ccc1C(=O)NC(=O)C1(C(F)(F)F)CC1 (stereo not drawn) [Synthesis Example 29]
≥ 80%: Spodoptera litura; 48 h | [1]; 48 h | Plutella xylostella; 48 h

Cc1cc(C2=NOC(c3cc(Cl)cc(Cl)c3)(C(F)(F)F)C2)ccc1C(=O)NC(=O)C1(C)CC1(F)F (stereo not drawn) [Synthesis Example 30]
≥ 80%: Spodoptera litura; 48 h | [1]; 48 h | Plutella xylostella; 48 h

Cc1cc(C2=NOC(c3cc(Cl)cc(C(F)(F)F)c3)(C(F)(F)F)C2)ccc1C(=O)NC(=O)C1(C)CC1(F)F (stereo not drawn) [Synthesis Example 31]
≥ 80%: Spodoptera litura; 48 h | [1]; 48 h | Plutella xylostella; 48 h

Cc1cc(C2=NOC(c3cc(Cl)cc(Cl)c3)(C(F)(F)F)C2)ccc1C(=O)NC(=O)C1CCC1 (stereo not drawn) [Synthesis Example 32]
≥ 80%: Spodoptera litura; 48 h | [1]; 48 h | Plutella xylostella; 48 h

Cc1cc(C2=NOC(c3cc(Cl)cc(C(F)(F)F)c3)(C(F)(F)F)C2)ccc1C(=O)NC(=O)C1CCC1 (stereo not drawn) [Synthesis Example 33]
≥ 80%: Spodoptera litura; 48 h | [1]; 48 h | Plutella xylostella; 48 h

Cc1cc(C2=NOC(c3cc(Cl)cc(Cl)c3)(C(F)(F)F)C2)ccc1C(=O)NC(=O)c1ccccc1 (stereo not drawn) [Synthesis Example 37]
≥ 80%: Spodoptera litura; 48 h | [1]; 48 h | Plutella xylostella; 48 h

Cc1cc(C2=NOC(c3cc(Cl)cc(Cl)c3)(C(F)(F)F)C2)ccc1C(=O)NC(=O)C1CCCCC1 (stereo not drawn) [Synthesis Example 39]
≥ 80%: Spodoptera litura; 48 h | [1]; 48 h | Plutella xylostella; 48 h

Cc1cc(C2=NOC(c3cc(Cl)cc(C(F)(F)F)c3)(C(F)(F)F)C2)ccc1C(=O)NC(=O)C1CCCCC1 (stereo not drawn) [Synthesis Example 40]
≥ 80%: Spodoptera litura; 48 h | [1]; 48 h | Plutella xylostella; 48 h

Cc1cc(C2=NOC(c3cc(Cl)cc(Cl)c3)(C(F)(F)F)C2)ccc1C(=O)NC(=O)c1cn(C)nc1C(F)F (stereo not drawn) [Synthesis Example 45]
≥ 80%: Spodoptera litura; 48 h | [1]; 48 h | Plutella xylostella; 48 h

Cn1cc(C(=O)NC(=O)c2ccc(C3=NOC(c4cc(Cl)cc(Cl)c4)(C(F)(F)F)C3)c3ccccc23)c(C(F)F)n1 (stereo not drawn) [Synthesis Example 46]
≥ 80%: Spodoptera litura; 48 h | [1]; 48 h | Plutella xylostella; 48 h

Source: patent US20250380697A1, “ISOXAZOLINE DERIVATIVE COMPOUND AND INSECTICIDAL COMPOSITION COMPRISING SAME” (KYUNG NONG CORPORATION, priority 2022, published 2025)
